Measurements: the kinase profiling compilation of Christmann-Franck et al. (2016)

Molecular target: WEE1 (human) (UniProt P30291)
Assay: radiometric filter-binding kinase assay, Kinase HotSpot
Settings: compound 0.5 µM; ATP 10 µM

How did the residual activity turn out when C#Cc1cccc(Nc2ncnc3cc(OCCOC)c(OCCOC)cc23)c1 was run?
Its residual activity is 95.2%.

How did the residual activity turn out when Nc1nc(Nc2ccc(S(N)(=O)=O)cc2)nn1C(=O)c1c(F)cccc1F was run?
Its residual activity is 83.6%.

How did the residual activity turn out when Clc1ccc(Nc2nnc(Cc3ccncc3)c3ccccc23)cc1 was run?
Its residual activity is 109%.

How did the residual activity turn out when O=C1Nc2ccccc2/C1=C\c1c(Cl)[nH]c2ccccc12 was run?
The residual activity was 107%.

Molecular target: IKBKB (human) (UniProt O14920)
Assay: as above
Settings: compound 0.5 µM; ATP 10 µM

Chain of IKBKB (human) (O14920 whole entry, looked up): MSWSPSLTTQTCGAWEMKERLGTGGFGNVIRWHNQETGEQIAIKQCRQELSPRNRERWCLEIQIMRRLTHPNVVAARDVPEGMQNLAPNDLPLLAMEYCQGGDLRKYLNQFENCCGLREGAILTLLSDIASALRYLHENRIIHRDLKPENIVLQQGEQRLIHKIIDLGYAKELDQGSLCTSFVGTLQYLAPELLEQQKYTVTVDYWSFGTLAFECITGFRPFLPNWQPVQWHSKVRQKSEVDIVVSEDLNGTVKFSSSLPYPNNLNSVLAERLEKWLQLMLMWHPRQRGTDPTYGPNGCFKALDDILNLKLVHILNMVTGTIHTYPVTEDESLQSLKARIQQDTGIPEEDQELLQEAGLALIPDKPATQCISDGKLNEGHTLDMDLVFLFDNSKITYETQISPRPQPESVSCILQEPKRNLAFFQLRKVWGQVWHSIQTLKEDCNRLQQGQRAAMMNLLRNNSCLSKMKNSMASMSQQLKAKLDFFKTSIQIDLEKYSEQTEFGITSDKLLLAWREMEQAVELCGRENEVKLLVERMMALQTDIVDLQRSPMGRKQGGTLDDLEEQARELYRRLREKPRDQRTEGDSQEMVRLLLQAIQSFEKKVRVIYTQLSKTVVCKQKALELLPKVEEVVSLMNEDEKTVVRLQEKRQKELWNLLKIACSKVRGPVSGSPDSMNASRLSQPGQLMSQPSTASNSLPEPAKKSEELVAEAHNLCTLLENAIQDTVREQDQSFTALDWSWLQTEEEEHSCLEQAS

How did the residual activity turn out when COc1cc2ncnc(Nc3ccc(F)c(Cl)c3)c2cc1OCCCN1CCOCC1 was run?
Its residual activity is 86.5%.

For C#Cc1cccc(Nc2ncnc3cc(OCCOC)c(OCCOC)cc23)c1, which residual activity is on record?
The residual activity was 83.5%.

For Nc1nc(Nc2ccc(S(N)(=O)=O)cc2)nn1C(=O)c1c(F)cccc1F, which residual activity is on record?
Its residual activity is 105%.

How did the residual activity turn out when Clc1ccc(Nc2nnc(Cc3ccncc3)c3ccccc23)cc1 was run?
Its residual activity is 85.6%.

How did the residual activity turn out when O=C1Nc2ccccc2/C1=C\c1c(Cl)[nH]c2ccccc12 was run?
The residual activity was 106%.

Molecular target: LRRK2 (human) (UniProt Q5S007)
Assay: as above
Settings: compound 0.5 µM; ATP 10 µM

With COc1cc2ncnc(Nc3ccc(F)c(Cl)c3)c2cc1OCCCN1CCOCC1 as the compound, how does the residual activity read?
The residual activity was 108%.

Nc1nc(Nc2ccc(S(N)(=O)=O)cc2)nn1C(=O)c1c(F)cccc1F was tested. Which residual activity did it give?
Its residual activity is 48.3%.

Which residual activity does the source give for Clc1ccc(Nc2nnc(Cc3ccncc3)c3ccccc23)cc1 here?
The residual activity was 74.8%.

How did the residual activity turn out when O=C1Nc2ccccc2/C1=C\c1c(Cl)[nH]c2ccccc12 was run?
Its residual activity is 102%.

Molecular target: HIPK1 (human) (UniProt Q86Z02)
Assay: as above
Settings: compound 0.5 µM; ATP 10 µM

Chain of HIPK1 (human) (Q86Z02 whole entry, looked up): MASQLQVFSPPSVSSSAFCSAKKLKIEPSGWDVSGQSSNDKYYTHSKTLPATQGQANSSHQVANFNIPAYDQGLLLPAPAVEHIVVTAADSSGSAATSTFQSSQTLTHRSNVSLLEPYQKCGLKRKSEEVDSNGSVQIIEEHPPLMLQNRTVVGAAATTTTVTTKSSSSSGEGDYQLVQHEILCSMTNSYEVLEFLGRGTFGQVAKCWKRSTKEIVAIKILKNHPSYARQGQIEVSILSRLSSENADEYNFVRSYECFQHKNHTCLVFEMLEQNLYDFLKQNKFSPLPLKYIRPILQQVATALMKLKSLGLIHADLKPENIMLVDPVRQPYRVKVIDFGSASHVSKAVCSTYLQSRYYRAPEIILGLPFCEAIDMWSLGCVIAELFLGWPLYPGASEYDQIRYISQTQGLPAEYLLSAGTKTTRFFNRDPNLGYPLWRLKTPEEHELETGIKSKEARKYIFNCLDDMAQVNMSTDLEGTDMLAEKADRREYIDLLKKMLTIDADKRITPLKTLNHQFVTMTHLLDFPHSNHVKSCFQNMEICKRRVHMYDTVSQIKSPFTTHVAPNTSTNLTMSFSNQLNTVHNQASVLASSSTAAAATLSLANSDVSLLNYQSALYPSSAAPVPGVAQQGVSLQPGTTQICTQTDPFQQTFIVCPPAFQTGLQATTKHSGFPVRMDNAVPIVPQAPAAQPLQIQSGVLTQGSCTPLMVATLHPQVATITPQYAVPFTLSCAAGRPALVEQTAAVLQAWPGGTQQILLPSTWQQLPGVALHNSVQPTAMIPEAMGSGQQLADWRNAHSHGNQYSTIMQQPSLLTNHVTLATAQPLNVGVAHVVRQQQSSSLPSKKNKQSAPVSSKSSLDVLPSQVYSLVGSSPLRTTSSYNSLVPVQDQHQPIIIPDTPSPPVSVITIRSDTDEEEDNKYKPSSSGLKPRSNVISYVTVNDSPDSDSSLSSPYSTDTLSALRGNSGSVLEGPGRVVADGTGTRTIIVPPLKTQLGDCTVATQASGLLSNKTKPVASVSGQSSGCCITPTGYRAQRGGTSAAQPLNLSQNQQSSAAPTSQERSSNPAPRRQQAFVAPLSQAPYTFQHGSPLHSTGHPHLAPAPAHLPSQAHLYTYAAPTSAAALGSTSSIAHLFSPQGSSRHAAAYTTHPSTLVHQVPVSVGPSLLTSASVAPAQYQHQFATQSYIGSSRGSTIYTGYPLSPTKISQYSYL

For COc1cc2ncnc(Nc3ccc(F)c(Cl)c3)c2cc1OCCCN1CCOCC1, which residual activity is on record?
Its residual activity is 97.6%.

Which residual activity does the source give for Nc1nc(Nc2ccc(S(N)(=O)=O)cc2)nn1C(=O)c1c(F)cccc1F here?
The residual activity was 106%.

Clc1ccc(Nc2nnc(Cc3ccncc3)c3ccccc23)cc1 was tested. Which residual activity did it give?
Its residual activity is 99.2%.

O=C1Nc2ccccc2/C1=C\c1c(Cl)[nH]c2ccccc12 was tested. Which residual activity did it give?
The residual activity was 100%.

Molecular target: PAK2 (human) (UniProt Q13177)
Assay: as above
Settings: compound 0.5 µM; ATP 10 µM

Chain of PAK2 (human) (Q13177 whole entry, looked up): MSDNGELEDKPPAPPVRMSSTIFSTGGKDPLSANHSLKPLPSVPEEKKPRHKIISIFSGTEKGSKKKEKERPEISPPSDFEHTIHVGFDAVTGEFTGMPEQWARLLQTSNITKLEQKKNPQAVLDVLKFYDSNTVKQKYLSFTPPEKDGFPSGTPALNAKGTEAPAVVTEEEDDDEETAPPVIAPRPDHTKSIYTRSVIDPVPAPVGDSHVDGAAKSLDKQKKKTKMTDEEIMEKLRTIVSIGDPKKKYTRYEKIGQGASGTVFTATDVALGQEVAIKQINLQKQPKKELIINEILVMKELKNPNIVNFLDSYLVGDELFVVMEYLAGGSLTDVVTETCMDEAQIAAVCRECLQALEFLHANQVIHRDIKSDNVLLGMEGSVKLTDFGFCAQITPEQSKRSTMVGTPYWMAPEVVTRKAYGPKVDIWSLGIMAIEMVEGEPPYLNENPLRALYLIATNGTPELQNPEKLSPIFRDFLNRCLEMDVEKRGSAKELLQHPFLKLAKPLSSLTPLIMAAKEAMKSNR

Which residual activity does the source give for COc1cc2ncnc(Nc3ccc(F)c(Cl)c3)c2cc1OCCCN1CCOCC1 here?
The residual activity was 100%.

For C#Cc1cccc(Nc2ncnc3cc(OCCOC)c(OCCOC)cc23)c1, which residual activity is on record?
Its residual activity is 99.1%.

With Clc1ccc(Nc2nnc(Cc3ccncc3)c3ccccc23)cc1 as the compound, how does the residual activity read?
The residual activity was 101%.

Molecular target: KDR (human) (UniProt P35968)
Assay: as above
Settings: compound 0.5 µM; ATP 10 µM

With Nc1nc(Nc2ccc(S(N)(=O)=O)cc2)nn1C(=O)c1c(F)cccc1F as the compound, how does the residual activity read?
The residual activity was 64.6%.

O=C1Nc2ccccc2/C1=C\c1c(Cl)[nH]c2ccccc12 was tested. Which residual activity did it give?
Its residual activity is 96.3%.

Molecular target: NEK2 (human) (UniProt P51955)
Assay: as above
Settings: compound 0.5 µM; ATP 10 µM

For COc1cc2ncnc(Nc3ccc(F)c(Cl)c3)c2cc1OCCCN1CCOCC1, which residual activity is on record?
The residual activity was 98.4%.

For C#Cc1cccc(Nc2ncnc3cc(OCCOC)c(OCCOC)cc23)c1, which residual activity is on record?
Its residual activity is 100%.

For Nc1nc(Nc2ccc(S(N)(=O)=O)cc2)nn1C(=O)c1c(F)cccc1F, which residual activity is on record?
The residual activity was 94.8%.

Clc1ccc(Nc2nnc(Cc3ccncc3)c3ccccc23)cc1 was tested. Which residual activity did it give?
Its residual activity is 101%.

O=C1Nc2ccccc2/C1=C\c1c(Cl)[nH]c2ccccc12 was tested. Which residual activity did it give?
Its residual activity is 99%.

Molecular target: GRK6 (human) (UniProt P43250)
Assay: as above
Settings: compound 0.5 µM; ATP 10 µM

Chain of GRK6 (human) (P43250 whole entry, looked up): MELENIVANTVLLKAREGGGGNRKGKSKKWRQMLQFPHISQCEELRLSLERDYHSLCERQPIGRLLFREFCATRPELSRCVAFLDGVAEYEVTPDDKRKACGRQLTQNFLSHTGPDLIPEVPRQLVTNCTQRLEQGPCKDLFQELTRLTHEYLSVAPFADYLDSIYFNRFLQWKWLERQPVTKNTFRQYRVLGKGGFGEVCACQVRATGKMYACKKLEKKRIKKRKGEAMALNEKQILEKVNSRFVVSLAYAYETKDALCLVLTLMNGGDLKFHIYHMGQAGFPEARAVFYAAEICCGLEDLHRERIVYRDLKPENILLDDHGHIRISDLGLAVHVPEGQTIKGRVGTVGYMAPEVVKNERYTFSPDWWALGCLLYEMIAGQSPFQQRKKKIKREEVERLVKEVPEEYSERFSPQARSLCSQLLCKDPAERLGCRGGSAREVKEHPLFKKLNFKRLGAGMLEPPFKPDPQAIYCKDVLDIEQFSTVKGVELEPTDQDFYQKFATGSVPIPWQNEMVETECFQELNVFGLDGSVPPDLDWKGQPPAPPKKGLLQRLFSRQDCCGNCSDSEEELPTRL

How did the residual activity turn out when COc1cc2ncnc(Nc3ccc(F)c(Cl)c3)c2cc1OCCCN1CCOCC1 was run?
The residual activity was 99.6%.

For C#Cc1cccc(Nc2ncnc3cc(OCCOC)c(OCCOC)cc23)c1, which residual activity is on record?
Its residual activity is 99.2%.

How did the residual activity turn out when Nc1nc(Nc2ccc(S(N)(=O)=O)cc2)nn1C(=O)c1c(F)cccc1F was run?
The residual activity was 77.2%.

With Clc1ccc(Nc2nnc(Cc3ccncc3)c3ccccc23)cc1 as the compound, how does the residual activity read?
Its residual activity is 99.9%.

O=C1Nc2ccccc2/C1=C\c1c(Cl)[nH]c2ccccc12 was tested. Which residual activity did it give?
The residual activity was 107%.

Molecular target: NTRK2 (human) (UniProt Q16620)
Assay: as above
Settings: compound 0.5 µM; ATP 10 µM

For COc1cc2ncnc(Nc3ccc(F)c(Cl)c3)c2cc1OCCCN1CCOCC1, which residual activity is on record?
Its residual activity is 98.2%.

With C#Cc1cccc(Nc2ncnc3cc(OCCOC)c(OCCOC)cc23)c1 as the compound, how does the residual activity read?
The residual activity was 93.1%.

Which residual activity does the source give for Nc1nc(Nc2ccc(S(N)(=O)=O)cc2)nn1C(=O)c1c(F)cccc1F here?
Its residual activity is 42.8%.

For Clc1ccc(Nc2nnc(Cc3ccncc3)c3ccccc23)cc1, which residual activity is on record?
The residual activity was 102%.

O=C1Nc2ccccc2/C1=C\c1c(Cl)[nH]c2ccccc12 was tested. Which residual activity did it give?
Its residual activity is 95%.

Molecular target: SIK2 (human) (UniProt Q9H0K1)
Assay: as above
Settings: compound 0.5 µM; ATP 10 µM

Chain of SIK2 (human) (Q9H0K1 whole entry, looked up): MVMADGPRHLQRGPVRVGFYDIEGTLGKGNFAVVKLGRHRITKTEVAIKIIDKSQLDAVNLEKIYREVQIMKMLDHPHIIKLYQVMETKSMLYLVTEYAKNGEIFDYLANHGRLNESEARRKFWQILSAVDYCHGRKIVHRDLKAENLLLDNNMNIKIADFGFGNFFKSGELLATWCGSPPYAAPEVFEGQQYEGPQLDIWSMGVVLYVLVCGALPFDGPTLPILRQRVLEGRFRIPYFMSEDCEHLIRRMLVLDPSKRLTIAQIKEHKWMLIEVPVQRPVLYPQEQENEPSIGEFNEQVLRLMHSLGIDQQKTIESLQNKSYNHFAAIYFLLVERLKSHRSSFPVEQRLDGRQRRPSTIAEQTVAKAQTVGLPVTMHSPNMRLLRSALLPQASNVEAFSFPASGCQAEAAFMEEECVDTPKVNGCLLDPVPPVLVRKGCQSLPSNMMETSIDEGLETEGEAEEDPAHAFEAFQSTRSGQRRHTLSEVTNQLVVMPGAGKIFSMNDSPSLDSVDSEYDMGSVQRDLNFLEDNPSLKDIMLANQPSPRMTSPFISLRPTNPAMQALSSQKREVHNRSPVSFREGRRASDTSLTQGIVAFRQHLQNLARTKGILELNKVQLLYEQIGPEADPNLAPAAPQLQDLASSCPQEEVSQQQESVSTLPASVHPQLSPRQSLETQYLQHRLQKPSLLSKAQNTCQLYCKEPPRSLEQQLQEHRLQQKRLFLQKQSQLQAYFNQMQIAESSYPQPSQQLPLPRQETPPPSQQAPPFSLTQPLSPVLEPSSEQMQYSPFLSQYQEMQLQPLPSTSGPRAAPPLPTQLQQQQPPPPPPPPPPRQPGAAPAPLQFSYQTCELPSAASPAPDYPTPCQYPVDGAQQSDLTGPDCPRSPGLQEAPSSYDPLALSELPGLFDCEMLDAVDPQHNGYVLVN

COc1cc2ncnc(Nc3ccc(F)c(Cl)c3)c2cc1OCCCN1CCOCC1 was tested. Which residual activity did it give?
The residual activity was 49.3%.

Which residual activity does the source give for Nc1nc(Nc2ccc(S(N)(=O)=O)cc2)nn1C(=O)c1c(F)cccc1F here?
Its residual activity is 84.1%.

Which residual activity does the source give for Clc1ccc(Nc2nnc(Cc3ccncc3)c3ccccc23)cc1 here?
The residual activity was 97.9%.

With O=C1Nc2ccccc2/C1=C\c1c(Cl)[nH]c2ccccc12 as the compound, how does the residual activity read?
Its residual activity is 103%.

Molecular target: EPHA1 (human) (UniProt P21709)
Assay: as above
Settings: compound 0.5 µM; ATP 10 µM

Chain of EPHA1 (human) (P21709 whole entry, looked up): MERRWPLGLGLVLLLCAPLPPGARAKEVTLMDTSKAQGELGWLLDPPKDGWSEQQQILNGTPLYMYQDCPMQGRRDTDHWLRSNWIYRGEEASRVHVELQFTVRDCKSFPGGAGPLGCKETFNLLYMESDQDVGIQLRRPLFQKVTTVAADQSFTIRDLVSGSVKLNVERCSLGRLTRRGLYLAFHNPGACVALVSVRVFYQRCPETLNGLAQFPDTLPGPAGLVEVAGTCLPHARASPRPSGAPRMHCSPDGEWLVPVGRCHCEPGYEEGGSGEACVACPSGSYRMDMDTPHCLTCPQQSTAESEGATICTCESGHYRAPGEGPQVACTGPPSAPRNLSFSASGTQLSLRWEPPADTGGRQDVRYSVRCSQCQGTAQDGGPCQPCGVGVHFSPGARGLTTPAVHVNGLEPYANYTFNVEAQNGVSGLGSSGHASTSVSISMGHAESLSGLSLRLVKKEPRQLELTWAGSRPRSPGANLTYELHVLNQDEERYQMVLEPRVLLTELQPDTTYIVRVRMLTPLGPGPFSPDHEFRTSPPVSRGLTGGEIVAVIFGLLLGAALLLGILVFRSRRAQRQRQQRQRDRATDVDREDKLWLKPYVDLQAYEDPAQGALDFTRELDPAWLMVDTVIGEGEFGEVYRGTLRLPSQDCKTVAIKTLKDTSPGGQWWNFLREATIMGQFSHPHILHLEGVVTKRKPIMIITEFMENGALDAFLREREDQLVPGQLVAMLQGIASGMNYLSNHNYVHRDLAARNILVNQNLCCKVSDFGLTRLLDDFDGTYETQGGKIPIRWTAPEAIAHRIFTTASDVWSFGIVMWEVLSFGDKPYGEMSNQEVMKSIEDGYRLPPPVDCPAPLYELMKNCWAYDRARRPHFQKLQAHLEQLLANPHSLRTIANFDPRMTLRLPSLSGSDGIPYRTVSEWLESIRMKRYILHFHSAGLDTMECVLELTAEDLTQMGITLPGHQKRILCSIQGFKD

How did the residual activity turn out when COc1cc2ncnc(Nc3ccc(F)c(Cl)c3)c2cc1OCCCN1CCOCC1 was run?
The residual activity was 87.4%.

For C#Cc1cccc(Nc2ncnc3cc(OCCOC)c(OCCOC)cc23)c1, which residual activity is on record?
Its residual activity is 94.5%.

How did the residual activity turn out when Nc1nc(Nc2ccc(S(N)(=O)=O)cc2)nn1C(=O)c1c(F)cccc1F was run?
Its residual activity is 73.7%.

Which residual activity does the source give for Clc1ccc(Nc2nnc(Cc3ccncc3)c3ccccc23)cc1 here?
Its residual activity is 96%.

How did the residual activity turn out when O=C1Nc2ccccc2/C1=C\c1c(Cl)[nH]c2ccccc12 was run?
Its residual activity is 98.5%.

Molecular target: MAPKAPK2 (human) (UniProt P49137)
Assay: as above
Settings: compound 0.5 µM; ATP 10 µM

How did the residual activity turn out when COc1cc2ncnc(Nc3ccc(F)c(Cl)c3)c2cc1OCCCN1CCOCC1 was run?
The residual activity was 97.5%.

Nc1nc(Nc2ccc(S(N)(=O)=O)cc2)nn1C(=O)c1c(F)cccc1F was tested. Which residual activity did it give?
Its residual activity is 95.8%.
